The text below walks through data of patent publication US7169769B2, “17α-hydroxy-14β-steroids with hormonal effect” (Akzo Nobel N.V., priority 2001, dated 2007).

The conditions of series [1]: reported in Heusser et al Helv Chim Acta Vol 22, 1949; cited from earlier work.
The target in series [2] is T1, human androgen receptor (hAR) (Homo sapiens, UniProt P10275).
T1 construct: expressed in transfected cells; host or cells: Chinese hamster ovary cells (CHO)
T1 sequence (P10275 1-920): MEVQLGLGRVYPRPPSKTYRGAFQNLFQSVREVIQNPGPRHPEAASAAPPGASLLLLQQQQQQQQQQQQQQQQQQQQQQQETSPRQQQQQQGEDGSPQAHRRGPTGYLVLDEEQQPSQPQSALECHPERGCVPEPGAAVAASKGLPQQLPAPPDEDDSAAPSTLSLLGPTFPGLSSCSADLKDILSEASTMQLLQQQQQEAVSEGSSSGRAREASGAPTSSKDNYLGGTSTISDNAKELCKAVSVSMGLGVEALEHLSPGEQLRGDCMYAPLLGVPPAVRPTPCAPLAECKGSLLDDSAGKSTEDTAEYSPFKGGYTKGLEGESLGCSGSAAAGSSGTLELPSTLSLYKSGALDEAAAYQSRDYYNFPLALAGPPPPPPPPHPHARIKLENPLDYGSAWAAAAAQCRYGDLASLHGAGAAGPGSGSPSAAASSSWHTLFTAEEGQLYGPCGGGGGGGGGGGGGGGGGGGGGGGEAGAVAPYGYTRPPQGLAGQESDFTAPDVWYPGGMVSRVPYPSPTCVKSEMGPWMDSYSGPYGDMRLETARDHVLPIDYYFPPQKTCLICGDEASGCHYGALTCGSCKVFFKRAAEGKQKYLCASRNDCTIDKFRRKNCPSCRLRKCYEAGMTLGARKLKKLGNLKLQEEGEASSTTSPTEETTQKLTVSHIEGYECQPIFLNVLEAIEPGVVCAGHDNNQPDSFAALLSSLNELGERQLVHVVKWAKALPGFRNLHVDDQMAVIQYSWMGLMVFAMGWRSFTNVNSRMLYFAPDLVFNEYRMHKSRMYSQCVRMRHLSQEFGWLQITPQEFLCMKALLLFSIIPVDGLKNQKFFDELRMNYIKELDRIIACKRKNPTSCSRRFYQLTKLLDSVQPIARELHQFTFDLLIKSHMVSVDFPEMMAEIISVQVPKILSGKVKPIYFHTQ
Nature of the series: Transactivative androgen activity in CHO cells transfected with hAR and MMTV-luciferase reporter, compared with 5α-dihydrotestosterone. The format is cell-based. Further details: concentration or dose not given beside the values. As to conditions: incubation 16 h, 37° C., compared with the activity of 5α-dihydrotestosterone. As to the method:
The transactivative androgen activity of the compounds of the invention was measured in Chinese hamster ovary cells (CHO) transfected with the human androgen receptor (hAR), in combination with a mouse mammary tumor virus (MMTV), and luciferase […] gene (incubation time 16 h, temperature 37° C.) and compared with the activity of 5α-dihydrotestosterone [Schoonen, W. G. E. J.; de Ries, R. J. H.; Joosten, J. W. H.; Mathijssen-Mommers, G. J. W.; Kloosterboer, H. J., Analyt. Biochem. 261, 222–224 (1998)].
(A reporter such as luciferase makes a cellular process visible.)

For another series, the system named is human hepatocytes. The experiment in a line: Determination of t1/2 (metabolic stability) after incubation with human hepatocytes. The format is in vitro ADME. Particulars: 100 nM compound, 0.5, 1 and 2 h, class relative to 17α-methyltestosterone and testosterone; for t1/2 Bioassay: supernatant analysed by androgenic activity bioassay (example 6). On the procedure: The half-life of a compound as a result of contact with human hepatocytes holds as a reliable indication of metabolic stability. As it is well known that the absorption of this class of steroids is high, this assay provides an in vitro model for oral activity in humans.
Hepatocytes collected from healthy young (25–45 year) male organ donors were cryo preserved in liquid nitrogen and kept there until use. They were thawed at 37° C. in a waterbath, placed immediately on ice, washed twice in one volume of cold (4° C.) incubation medium [William's medium E (without phenol red) with Glutamax I®, gentamicin 50 μg/ml, insulin 1 μM, fetal calf serum 0% (v/v)], counted and the viability checked by Trypan blue exclusion. Cells were incubated as suspensions in 96-wells (non-coated) plates at a nominal density of 3×10^4 cells/well in 300 μl medium at 37° C. with an air/CO2 mixture (95/5).
The hepatocytes were incubated with 100 nM final concentration of the compound to be tested. The incubations were stopped after 0.5, 1 and 2 h by centrifugation at 200 g. The supernatant was collected for liquid chromatography coupled to immediate mass spectroscopic analysis (LC-MS/MS analysis) and for bioassay. For the latter 10 μl was used for determination of the androgenic activity. The androgenicity was determined as described at example 6. The final compound concentration for determination of androgenic activity was 1 nmol/l.
The metabolic stability (t1/2) of the compounds of the invention were classified according to the following scheme: • (+++) metabolic stability>17α-methyltestosterone (MT) • (++) 17α-methyltestosterone>metabolic stability>80% of 17α-methyltestosterone • (+) 80% of 17α-methyltestosterone>metabolic stability>testosterone • (−) metabolic stability<testosterone Results are collected in Table 1.

Regarding `C[C@]12CC[C@H]3[C@@H](CCC4=CC(=O)CC[C@@]43C)[C@H]1CC[C@H]2O` [17α-hydroxy-14β-testosterone], the androgenic activity result in series [1] is reported as “no androgenic activity”.
With `C[C@@H]1CC2=CC(=O)CC[C@@H]2[C@H]2CC[C@]3(C)[C@H](O)[C@@H](C)C[C@@H]3[C@@H]21` [Example 1, (7α,14β,16β,17α)-17-Hydroxy-7,16-dimethylestr-4-en-3-one], in series [2], the “Androgen activity (%)” value is recorded as 99.0%. Further, the “t1/2 LC-MS/MS” value with human hepatocytes (supernatant analysed by LC-MS/MS) was “(+ +)”. Besides, the “t1/2 Bioassay” value in the series on human hepatocytes is on record as “(+ +)”.
For `C[C@@H]1CC2=CC(=O)CC[C@@H]2[C@H]2CC[C@]3(C)[C@H](O)[C@H](C)C[C@@H]3[C@@H]21` [Example 2, (7α,14β,16α,17α)-17-Hydroxy-7,16-dimethylestr-4-en-3-one], the “Androgen activity (%)” value in series [2] worked out at 38.7%. Besides, the “t1/2 Bioassay” value in the series on human hepatocytes is given as “(+ +)”.
Turning to `C[C@@H]1CC2=CC(=O)CC[C@@H]2[C@H]2CC[C@@]3(C)[C@H](CC(C)(C)[C@H]3O)[C@@H]21` [Example 3, (7α,14β,17α)-17-hydroxy-7,16,16-trimethylestr-4-en-3-one], the “Androgen activity (%)” value in series [2] is on record as 78.5%.
For the molecule `CC[C@H]1C[C@@H]2[C@H]3[C@H](CC[C@]2(C)[C@@H]1O)[C@H]1CCC(=O)C=C1C[C@H]3C` [Example 4a, (7α,14β,16β,17α)-16-Ethyl-17-hydroxy-7-methylestr-4-en-3-one], in series [2], the “Androgen activity (%)” value is 20.0%.
Still for that read-out and setting: to `CC[C@@]1(C)C[C@@H]2[C@H]3[C@H](CC[C@]2(C)[C@@H]1O)[C@H]1CCC(=O)C=C1C[C@H]3C` [Example 4b, (7α,14β,16β,17α)-16-Ethyl-17-hydroxy-7,16-dimethylestr-4-en-3-one] belongs 24.0%; to `C[C@@H]1CC2=CC(=O)CC[C@@H]2[C@H]2CC[C@]3(C)[C@H](O)CC[C@@H]3[C@@H]21` [Ref. comp. 2, (7α,14β,17α)-17-Hydroxy-7-methylestr-4-en-3-one, reference compound], 60.5%.
